Data: ChEMBL document CHEMBL4651402, “Screening of ~5500 FDA-approved drugs and clinical candidates for anti-SARS-CoV-2 activity” (2021)

test system: SARS-CoV-2; assay: microbe, parasite or virus in culture; conditions: Severe acute respiratory syndrome coronavirus 2, Vero C1008, 48 h

Compound	IC50 [µM]
CC1(C)CC(=O)N(CCCCN2CCN(c3ncccn3)CC2)C(=O)C1 [GEPIRONE]	> 20
CC(C)(C)NC(=O)[C@@H]1CN(Cc2cccnc2)CCN1C[C@@H](O)C[C@@H](Cc1ccccc1)C(=O)N[C@H]1c2ccccc2C[C@H]1O	> 10
COc1ccc(Cc2cnc(N)nc2N)cc1OC [DIAVERIDINE]	> 20
O=c1[nH]c2ccccc2n1CCN1CCN(c2cccc(C(F)(F)F)c2)CC1 [FLIBANSERIN]	> 20
CCOC(=O)c1ncn2c1CN(C)C(=O)c1cc(F)ccc1-2 [FLUMAZENIL]	> 20
CCCCS(=N)(=O)CCC(N)C(=O)O (stereo unspecified) [BUTHIONINE SULFOXIMINE]	> 20
c1cc2c(c(N3CCNCC3)c1)OCCO2 [ELTOPRAZINE]	> 20
CCOC(=O)C1=C[C@@H](OC(CC)CC)[C@H](NC(C)=O)[C@@H](N)C1 [OSELTAMIVIR]	> 20
C[C@H](NC(=O)C(C)(C)Oc1ccc(C(F)(F)F)cn1)[C@@H](Cc1ccc(Cl)cc1)c1cccc(C#N)c1 [TARANABANT]	> 20
CC(C)(CO)[C@@H](O)C(=O)NCCCO [DEXPANTHENOL]	> 20
C[C@H](CCC(=O)O)[C@H]1CC[C@H]2[C@@H]3CCC4C[C@H](O)CC[C@]4(C)[C@H]3CC[C@]12C (stereo partly specified)	> 20
COc1ccc(C(=O)c2ccc(C)cc2)c(O)c1 [MEXENONE]	> 20
C[C@H](CSC(=O)c1ccccc1)C(=O)N1C[C@@H](Sc2ccccc2)C[C@H]1C(=O)O [ZOFENOPRIL]	> 20
CCc1nc2ccc(Cl)cn2c1C(=O)NCc1ccc(N2CCC(c3ccc(OC(F)(F)F)cc3)CC2)cc1 [TELACEBEC]	> 20
CCOC(=O)OC(C)OC(=O)[C@@H]1N2C(=O)[C@@H](NC(=O)[C@H](N)c3ccccc3)[C@H]2SC1(C)C (stereo partly specified) [BACAMPICILLIN]	> 20
CCC[C@@H]1C[C@@H](C(=O)N[C@@H]([C@H]2O[C@H](SC)[C@H](O)[C@@H](O)[C@H]2O)[C@@H](C)O)N(C)C1 [LINCOMYCIN]	> 20
Fc1ccc(C(OCCN2CCN(CCCc3ccccc3)CC2)c2ccc(F)cc2)cc1 [VANOXERINE]	> 20
C[N+]1(C)CCC(OC(=O)C(O)(c2ccccc2)c2ccccc2)CC1 [PARAPENZOLATE]	> 20
O=C1CC[C@@H](C(=O)O)N1 [PIDOLIC ACID]	> 20
Cc1cccc(Cl)c1NC(=O)CCN1CCC[C@H]2CCC[C@@H]21	> 20
CC(C)Nc1cccnc1N1CCN(C(=O)c2cc3cc(NS(C)(=O)=O)ccc3[nH]2)CC1 [DELAVIRDINE]	> 20
COc1cc2c(cc1OC)C(C)N(CCc1ccc(N)cc1)CC2 (stereo unspecified) [VERADOLINE]	> 20

Compound	IC50 [µM]
CC1(O)CCOC(=O)C1 (stereo unspecified)	> 20
CC[C@]12CCCN3CCc4c(n(c5ccccc45)C(=O)C1)[C@@H]32 [VINBURNINE]	> 20
CCOC(=O)COc1ccc2c(=O)cc(-c3ccccc3)oc2c1 [EFLOXATE]	> 20
COc1cc(Br)c(CC2c3cc(OC)c(OC)cc3CCN2C)cc1OC (racemic)	> 20
O=c1n(CC2CO2)c(=O)n(CC2CO2)c(=O)n1CC1CO1 (stereo unspecified) [TEROXIRONE]	> 20
C=C(C)C1Cc2c(ccc3c2OC2COc4cc(OC)c(OC)cc4C2C3=O)O1 (stereo unspecified)	> 20
CC(C)[C@H](O)C(=O)N[C@@H](C)C(=O)N[C@@H]1C(=O)N(C)CCc2ccccc21	> 20
Cc1nnc(SCC2=C(C(=O)O)N3C(=O)C(NC(=O)C(N)c4ccc(O)cc4)C3SC2)s1 (stereo unspecified)	> 20
CCC[C@@H]1C[C@@H](C(=O)NC(C2O[C@H](SC)[C@H](OP(=O)(O)O)[C@@H](O)[C@H]2O)[C@H](C)Cl)N(C)C1 (stereo partly specified)	> 20
C[C@H]1[C@H](OC(=O)CCC(=O)O)O[C@@H]2O[C@@]3(C)CC[C@H]4[C@H](C)CC[C@@H]1[C@@]24OO3 [ARTESUNATE]	> 20
COc1ccc(C2CNC(=O)C2)cc1OCCCN1CCC(C(=O)c2ccc(F)cc2)CC1 (stereo unspecified) [LIDANSERIN]	> 20
CCN(CC)CCSC(=O)N(c1ccccc1)c1ccccc1 [PHENCARBAMIDE]	> 20
O=C(O)CCC(=O)C(=O)O [ALPHA-KETOGLUTARIC ACID]	> 20
Nc1nc(=O)n([C@H]2CC[C@@H](CO)O2)cc1F	> 20
Cc1nc(N2CCOC[C@@H]2C)nc(-n2ccnc2)c1[N+](=O)[O-]	> 20
COC(=O)N[C@H](C(=O)N[C@@H](Cc1ccccc1)[C@@H](O)CN(Cc1ccc(-c2ccccn2)cc1)NC(=O)[C@@H](NC(=O)OC)C(C)(C)C)C(C)(C)C [ATAZANAVIR]	> 20
CC[C@H](c1ccc(O)cc1)[C@@H](CC)c1ccc(O)cc1 [HEXESTROL]	> 20
COC1=C[C@@H]2C3=C([C@@H]2C1=O)[C@@H](NC(C)=O)CCc1cc(OC)c(OC)c(OC)c13	> 20
O=c1c2cc(O)c(O)cc2oc2cc(O)c([C@@H]3O[C@H](CO)[C@@H](O)[C@H](O)[C@H]3O)c(O)c12 [MANGIFERIN]	> 20
COc1nc2ccc(Br)cc2cc1[C@@H](c1ccccc1)[C@@](O)(CCN(C)C)c1cccc2ccccc12 [BEDAQUILINE]	> 20
CCn1cc(C(=O)O)c(=O)c2ccc(Cc3ccccc3)nc21 [AMFONELIC ACID]	> 20

same assay, conditions: Severe acute respiratory syndrome coronavirus 2, Vero C1008, 48 h, read-out: pIC50 (converted)

Compound	IC50 [µM]
CC1(C)CC(=O)N(CCCCN2CCN(c3ncccn3)CC2)C(=O)C1 [GEPIRONE]	> 20
CC(C)(C)NC(=O)[C@@H]1CN(Cc2cccnc2)CCN1C[C@@H](O)C[C@@H](Cc1ccccc1)C(=O)N[C@H]1c2ccccc2C[C@H]1O	> 10
COc1ccc(Cc2cnc(N)nc2N)cc1OC [DIAVERIDINE]	> 20
O=c1[nH]c2ccccc2n1CCN1CCN(c2cccc(C(F)(F)F)c2)CC1 [FLIBANSERIN]	> 20
CCOC(=O)c1ncn2c1CN(C)C(=O)c1cc(F)ccc1-2 [FLUMAZENIL]	> 20
CCCCS(=N)(=O)CCC(N)C(=O)O (stereo unspecified) [BUTHIONINE SULFOXIMINE]	> 20
c1cc2c(c(N3CCNCC3)c1)OCCO2 [ELTOPRAZINE]	> 20
CCOC(=O)C1=C[C@@H](OC(CC)CC)[C@H](NC(C)=O)[C@@H](N)C1 [OSELTAMIVIR]	> 20
C[C@H](NC(=O)C(C)(C)Oc1ccc(C(F)(F)F)cn1)[C@@H](Cc1ccc(Cl)cc1)c1cccc(C#N)c1 [TARANABANT]	> 20
CC(C)(CO)[C@@H](O)C(=O)NCCCO [DEXPANTHENOL]	> 20
C[C@H](CCC(=O)O)[C@H]1CC[C@H]2[C@@H]3CCC4C[C@H](O)CC[C@]4(C)[C@H]3CC[C@]12C (stereo partly specified)	> 20
COc1ccc(C(=O)c2ccc(C)cc2)c(O)c1 [MEXENONE]	> 20
C[C@H](CSC(=O)c1ccccc1)C(=O)N1C[C@@H](Sc2ccccc2)C[C@H]1C(=O)O [ZOFENOPRIL]	> 20
CCc1nc2ccc(Cl)cn2c1C(=O)NCc1ccc(N2CCC(c3ccc(OC(F)(F)F)cc3)CC2)cc1 [TELACEBEC]	> 20
CCOC(=O)OC(C)OC(=O)[C@@H]1N2C(=O)[C@@H](NC(=O)[C@H](N)c3ccccc3)[C@H]2SC1(C)C (stereo partly specified) [BACAMPICILLIN]	> 20
CCC[C@@H]1C[C@@H](C(=O)N[C@@H]([C@H]2O[C@H](SC)[C@H](O)[C@@H](O)[C@H]2O)[C@@H](C)O)N(C)C1 [LINCOMYCIN]	> 20
Fc1ccc(C(OCCN2CCN(CCCc3ccccc3)CC2)c2ccc(F)cc2)cc1 [VANOXERINE]	> 20
C[N+]1(C)CCC(OC(=O)C(O)(c2ccccc2)c2ccccc2)CC1 [PARAPENZOLATE]	> 20
O=C1CC[C@@H](C(=O)O)N1 [PIDOLIC ACID]	> 20
Cc1cccc(Cl)c1NC(=O)CCN1CCC[C@H]2CCC[C@@H]21	> 20
CC(C)Nc1cccnc1N1CCN(C(=O)c2cc3cc(NS(C)(=O)=O)ccc3[nH]2)CC1 [DELAVIRDINE]	> 20
COc1cc2c(cc1OC)C(C)N(CCc1ccc(N)cc1)CC2 (stereo unspecified) [VERADOLINE]	> 20

Compound	IC50 [µM]
CC1(O)CCOC(=O)C1 (stereo unspecified)	> 20
CC[C@]12CCCN3CCc4c(n(c5ccccc45)C(=O)C1)[C@@H]32 [VINBURNINE]	> 20
CCOC(=O)COc1ccc2c(=O)cc(-c3ccccc3)oc2c1 [EFLOXATE]	> 20
COc1cc(Br)c(CC2c3cc(OC)c(OC)cc3CCN2C)cc1OC (racemic)	> 20
O=c1n(CC2CO2)c(=O)n(CC2CO2)c(=O)n1CC1CO1 (stereo unspecified) [TEROXIRONE]	> 20
C=C(C)C1Cc2c(ccc3c2OC2COc4cc(OC)c(OC)cc4C2C3=O)O1 (stereo unspecified)	> 20
CC(C)[C@H](O)C(=O)N[C@@H](C)C(=O)N[C@@H]1C(=O)N(C)CCc2ccccc21	> 20
Cc1nnc(SCC2=C(C(=O)O)N3C(=O)C(NC(=O)C(N)c4ccc(O)cc4)C3SC2)s1 (stereo unspecified)	> 20
CCC[C@@H]1C[C@@H](C(=O)NC(C2O[C@H](SC)[C@H](OP(=O)(O)O)[C@@H](O)[C@H]2O)[C@H](C)Cl)N(C)C1 (stereo partly specified)	> 20
C[C@H]1[C@H](OC(=O)CCC(=O)O)O[C@@H]2O[C@@]3(C)CC[C@H]4[C@H](C)CC[C@@H]1[C@@]24OO3 [ARTESUNATE]	> 20
COc1ccc(C2CNC(=O)C2)cc1OCCCN1CCC(C(=O)c2ccc(F)cc2)CC1 (stereo unspecified) [LIDANSERIN]	> 20
CCN(CC)CCSC(=O)N(c1ccccc1)c1ccccc1 [PHENCARBAMIDE]	> 20
O=C(O)CCC(=O)C(=O)O [ALPHA-KETOGLUTARIC ACID]	> 20
Nc1nc(=O)n([C@H]2CC[C@@H](CO)O2)cc1F	> 20
Cc1nc(N2CCOC[C@@H]2C)nc(-n2ccnc2)c1[N+](=O)[O-]	> 20
COC(=O)N[C@H](C(=O)N[C@@H](Cc1ccccc1)[C@@H](O)CN(Cc1ccc(-c2ccccn2)cc1)NC(=O)[C@@H](NC(=O)OC)C(C)(C)C)C(C)(C)C [ATAZANAVIR]	> 20
CC[C@H](c1ccc(O)cc1)[C@@H](CC)c1ccc(O)cc1 [HEXESTROL]	> 20
COC1=C[C@@H]2C3=C([C@@H]2C1=O)[C@@H](NC(C)=O)CCc1cc(OC)c(OC)c(OC)c13	> 20
O=c1c2cc(O)c(O)cc2oc2cc(O)c([C@@H]3O[C@H](CO)[C@@H](O)[C@H](O)[C@H]3O)c(O)c12 [MANGIFERIN]	> 20
COc1nc2ccc(Br)cc2cc1[C@@H](c1ccccc1)[C@@](O)(CCN(C)C)c1cccc2ccccc12 [BEDAQUILINE]	> 20
CCn1cc(C(=O)O)c(=O)c2ccc(Cc3ccccc3)nc21 [AMFONELIC ACID]	> 20
